Experimental data: patent publication US20230085307A1, “PYRIDAZINONE COMPOUND AND HERBICIDE” (NISSAN CHEMICAL CORPORATION, priority 2019, published 2023)

Columns and labels:
blackgrass [1] = assay: Test Example 4: herbicidal effect by soil treatment (Table 19, symbol J); assay type: in vivo, blackgrass (Alopecurus myosuroides); conditions: amount of applied herbicide 320 g/ha
Procedure, shortened: (§1)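 Step 1: sow seeds in sterilized diluvial soil, cover ~1.5 cm. Step 2: spray diluted emulsion onto soil surface at predetermined rate. Step 3: greenhouse, 25–30° C, three weeks. Step 4: grade effect on each plant by earlier criteria.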

rice flat sedge = assay: Test Example 3: herbicidal effect by foliage application, Wagner pot (Table 18, symbol E); assay type: in vivo, rice flat sedge (Cyperus iria); conditions: 320 g/ha
Procedure, shortened: (§2)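 Plants were sown in alluvial soil held under 0.1–0.5 cm standing water and grown 14 days in a greenhouse at 25–30 °C. An emulsifiable formulation, water-diluted to the set dose, was then sprayed onto the foliage, and effects were scored three weeks later using previously defined criteria.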

barnyard grass [2] = assay: Test Example 5: herbicidal effect by foliage application, plastic box (Table 20, symbol H); assay type: in vivo, barnyard grass (Echinochloa crus-galli); conditions: amount of applied herbicide 320 g/ha; foliage application after 14-day growth; evaluated three weeks after application
Procedure, shortened: (§3)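 Foliar spray test: emulsion formulation diluted in water to a set application rate, sprayed onto 14-day-old plants raised in diluvial soil at 25° C to 30° C under glass. Both herbicidal effect and crop effect rated visually three weeks later.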

southern crabgrass [3] = assay: Test Example 4: herbicidal effect by soil treatment (Table 19, symbol F); assay type: in vivo, southern crabgrass (Digitaria ciliaris); conditions: amount of applied herbicide 320 g/ha
Procedure, shortened: as §1

lambsquarters [4] = assay: Test Example 4: herbicidal effect by soil treatment (Table 19, symbol O); assay type: in vivo, lambsquarters (Chenopodium album); conditions: amount of applied herbicide 320 g/ha
Procedure, shortened: as §1

barnyard grass [5] = assay: Test Example 4: herbicidal effect by soil treatment (Table 19, symbol H); assay type: in vivo, barnyard grass (Echinochloa crus-galli); conditions: amount of applied herbicide 320 g/ha
Procedure, shortened: as §1

persian speedwell [6] = assay: Test Example 5: herbicidal effect by foliage application, plastic box (Table 20, symbol R); assay type: in vivo, Persian speedwell (Veronica persica); conditions: amount of applied herbicide 320 g/ha; foliage application after 14-day growth; evaluated three weeks after application
Procedure, shortened: as §3

windgrass [7] = assay: Test Example 4: herbicidal effect by soil treatment (Table 19, symbol L); assay type: in vivo, windgrass (Apera spica-venti); conditions: amount of applied herbicide 320 g/ha
Procedure, shortened: as §1

persian speedwell [8] = assay: Test Example 4: herbicidal effect by soil treatment (Table 19, symbol R); assay type: in vivo, Persian speedwell (Veronica persica); conditions: amount of applied herbicide 320 g/ha
Procedure, shortened: as §1

barnyard grass [9] = assay: Test Example 3: herbicidal effect by foliage application, Wagner pot (Table 18, symbol H); assay type: in vivo, barnyard grass (Echinochloa crus-galli); conditions: 320 g/ha
Procedure, shortened: as §2

oval-leafed pondweed = assay: Test Example 1: herbicidal activity, application before weed generation under submerged conditions (Table 16, symbol C); assay type: in vivo, oval-leafed pondweed (Monochoria vaginalis); conditions: amount of applied herbicide 320 g/ha
Procedure, shortened: (§4)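 Emulsion formulation, water-diluted to set dose, was put onto the flooded surface (4 cm depth, alluvial soil) the same day weeds were sown and 2.5-leaf rice transplanted. After 3 weeks at 25-30 °C under glass, each species was rated 0 (≤5% kill) to 5 (≥90% kill).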

southern crabgrass [10] = assay: Test Example 5: herbicidal effect by foliage application, plastic box (Table 20, symbol F); assay type: in vivo, southern crabgrass (Digitaria ciliaris); conditions: amount of applied herbicide 320 g/ha; foliage application after 14-day growth; evaluated three weeks after application
Procedure, shortened: as §3

Italian ryegrass [11] = assay: Test Example 4: herbicidal effect by soil treatment (Table 19, symbol K); assay type: in vivo, Italian ryegrass (Lolium multiflorum); conditions: amount of applied herbicide 320 g/ha
Procedure, shortened: as §1

late watergrass = assay: Test Example 1: herbicidal activity, application before weed generation under submerged conditions (Table 16, symbol A); assay type: in vivo, late watergrass (Echinochloa oryzicola); conditions: amount of applied herbicide 320 g/ha
Procedure, shortened: as §4

wild oat [12] = assay: Test Example 4: herbicidal effect by soil treatment (Table 19, symbol I); assay type: in vivo, wild oat (Avena fatua); conditions: amount of applied herbicide 320 g/ha
Procedure, shortened: as §1

Japanese bulrush = assay: Test Example 1: herbicidal activity, application before weed generation under submerged conditions (Table 16, symbol B); assay type: in vivo, Japanese bulrush (Schoenoplectus juncoides); conditions: amount of applied herbicide 320 g/ha
Procedure, shortened: as §4

lambsquarters [13] = assay: Test Example 5: herbicidal effect by foliage application, plastic box (Table 20, symbol O); assay type: in vivo, lambsquarters (Chenopodium album); conditions: amount of applied herbicide 320 g/ha; foliage application after 14-day growth; evaluated three weeks after application
Procedure, shortened: as §3

chickweed [14] = assay: Test Example 4: herbicidal effect by soil treatment (Table 19, symbol P); assay type: in vivo, common chickweed (Stellaria media); conditions: amount of applied herbicide 320 g/ha
Procedure, shortened: as §1

velvetleaf [15] = assay: Test Example 4: herbicidal effect by soil treatment (Table 19, symbol M); assay type: in vivo, velvetleaf (Abutilon theophrasti); conditions: amount of applied herbicide 320 g/ha
Procedure, shortened: as §1

Italian ryegrass [16] = assay: Test Example 5: herbicidal effect by foliage application, plastic box (Table 20, symbol K); assay type: in vivo, Italian ryegrass (Lolium multiflorum); conditions: amount of applied herbicide 320 g/ha; foliage application after 14-day growth; evaluated three weeks after application
Procedure, shortened: as §3

windgrass [17] = assay: Test Example 5: herbicidal effect by foliage application, plastic box (Table 20, symbol L); assay type: in vivo, windgrass (Apera spica-venti); conditions: amount of applied herbicide 320 g/ha; foliage application after 14-day growth; evaluated three weeks after application
Procedure, shortened: as §3

velvetleaf [18] = assay: Test Example 5: herbicidal effect by foliage application, plastic box (Table 20, symbol M); assay type: in vivo, velvetleaf (Abutilon theophrasti); conditions: amount of applied herbicide 320 g/ha; foliage application after 14-day growth; evaluated three weeks after application
Procedure, shortened: as §3

redroot pigweed [19] = assay: Test Example 5: herbicidal effect by foliage application, plastic box (Table 20, symbol N); assay type: in vivo, redroot pigweed (Amaranthus retroflexus); conditions: amount of applied herbicide 320 g/ha; foliage application after 14-day growth; evaluated three weeks after application
Procedure, shortened: as §3

wild oat [20] = assay: Test Example 5: herbicidal effect by foliage application, plastic box (Table 20, symbol I); assay type: in vivo, wild oat (Avena fatua); conditions: amount of applied herbicide 320 g/ha; foliage application after 14-day growth; evaluated three weeks after application
Procedure, shortened: as §3

redroot pigweed [21] = assay: Test Example 4: herbicidal effect by soil treatment (Table 19, symbol N); assay type: in vivo, redroot pigweed (Amaranthus retroflexus); conditions: amount of applied herbicide 320 g/ha
Procedure, shortened: as §1

Chinese sprangletop = assay: Test Example 3: herbicidal effect by foliage application, Wagner pot (Table 18, symbol D); assay type: in vivo, chinese sprangletop (Leptochloa chinensis); conditions: 320 g/ha
Procedure, shortened: as §2

green foxtail [22] = assay: Test Example 4: herbicidal effect by soil treatment (Table 19, symbol G); assay type: in vivo, green foxtail (Setaria viridis); conditions: amount of applied herbicide 320 g/ha
Procedure, shortened: as §1

green foxtail [23] = assay: Test Example 5: herbicidal effect by foliage application, plastic box (Table 20, symbol G); assay type: in vivo, green foxtail (Setaria viridis); conditions: amount of applied herbicide 320 g/ha; foliage application after 14-day growth; evaluated three weeks after application
Procedure, shortened: as §3

chickweed [24] = assay: Test Example 5: herbicidal effect by foliage application, plastic box (Table 20, symbol P); assay type: in vivo, common chickweed (Stellaria media); conditions: amount of applied herbicide 320 g/ha; foliage application after 14-day growth; evaluated three weeks after application
Procedure, shortened: as §3

blackgrass [25] = assay: Test Example 5: herbicidal effect by foliage application, plastic box (Table 20, symbol J); assay type: in vivo, blackgrass (Alopecurus myosuroides); conditions: amount of applied herbicide 320 g/ha; foliage application after 14-day growth; evaluated three weeks after application
Procedure, shortened: as §3

Row | SMILES | herbicidal effect on rice flat sedge (E) (rice flat sedge) | Herbicidal effect by foliage application, H: barnyard grass (barnyard grass [2]) | Herbicidal effect by foliage application, R: persian speedwell (persian speedwell [6]) | herbicidal effect on barnyard grass (H) (barnyard grass [9]) | Herbicidal effect, C: oval-leafed pondweed (oval-leafed pondweed) | Herbicidal effect by foliage application, F: southern crabgrass (southern crabgrass [10]) | Herbicidal effect, A: late watergrass (late watergrass) | Herbicidal effect, B: Japanese bulrush (Japanese bulrush) | Herbicidal effect by foliage application, O: lambsquarters (lambsquarters [13]) | Herbicidal effect by foliage application, K: Italian ryegrass (Italian ryegrass [16]) | Herbicidal effect by foliage application, L: windgrass (windgrass [17]) | Herbicidal effect by foliage application, M: velvetleaf (velvetleaf [18]) | Herbicidal effect by foliage application, N: redroot pigweed (redroot pigweed [19]) | Herbicidal effect by foliage application, I: wild oat (wild oat [20]) | herbicidal effect on Chinese sprangletop (D) (Chinese sprangletop) | Herbicidal effect by foliage application, G: green foxtail (green foxtail [23]) | Herbicidal effect by foliage application, P: chickweed (chickweed [24]) | Herbicidal effect by foliage application, J: blackgrass (blackgrass [25]) | other results
1 | CSc1ccc(-c2sc3c(C)cccc3c2-c2c(O)c(C)nn(C)c2=O)cc1 [4-118] | 4 (Herbicidal rate of 70% or more and less than 90%) | 3 (Herbicidal rate of 40% or more and less than 70%) | 5 (Herbicidal rate of 90% or more (almost completely withered)) | 4 (Herbicidal rate of 70% or more and less than 90%) | 2 (Herbicidal rate of 20% or more and less than 40%) | 3 (Herbicidal rate of 40% or more and less than 70%) | 3 (Herbicidal rate of 40% or more and less than 70%) | 2 (Herbicidal rate of 20% or more and less than 40%) | 5 (Herbicidal rate of 90% or more (almost completely withered)) | 5 (Herbicidal rate of 90% or more (almost completely withered)) | 5 (Herbicidal rate of 90% or more (almost completely withered)) | 5 (Herbicidal rate of 90% or more (almost completely withered)) | 5 (Herbicidal rate of 90% or more (almost completely withered)) | 3 (Herbicidal rate of 40% or more and less than 70%) | 3 (Herbicidal rate of 40% or more and less than 70%) | 3 (Herbicidal rate of 40% or more and less than 70%) | 5 (Herbicidal rate of 90% or more (almost completely withered)) | 5 (Herbicidal rate of 90% or more (almost completely withered)) | Herbicidal effect by soil treatment, J: blackgrass (blackgrass [1]): 0 (Herbicidal rate of 5% or less (almost no effect)); Herbicidal effect by soil treatment, F: southern crabgrass (southern crabgrass [3]): 0 (Herbicidal rate of 5% or less (almost no effect)); Herbicidal effect by soil treatment, O: lambsquarters (lambsquarters [4]): 5 (Herbicidal rate of 90% or more (almost completely withered)); Herbicidal effect by soil treatment, H: barnyard grass (barnyard grass [5]): 0 (Herbicidal rate of 5% or less (almost no effect)); Herbicidal effect by soil treatment, L: windgrass (windgrass [7]): 0 (Herbicidal rate of 5% or less (almost no effect)); Herbicidal effect by soil treatment, R: persian speedwell (persian speedwell [8]): 4 (Herbicidal rate of 70% or more and less than 90%); Herbicidal effect by soil treatment, K: Italian ryegrass (Italian ryegrass [11]): 5 (Herbicidal rate of 90% or more (almost completely withered)); Herbicidal effect by soil treatment, I: wild oat (wild oat [12]): 0 (Herbicidal rate of 5% or less (almost no effect)); Herbicidal effect by soil treatment, P: chickweed (chickweed [14]): 4 (Herbicidal rate of 70% or more and less than 90%); Herbicidal effect by soil treatment, M: velvetleaf (velvetleaf [15]): 3 (Herbicidal rate of 40% or more and less than 70%); Herbicidal effect by soil treatment, N: redroot pigweed (redroot pigweed [21]): 5 (Herbicidal rate of 90% or more (almost completely withered)); Herbicidal effect by soil treatment, G: green foxtail (green foxtail [22]): 0 (Herbicidal rate of 5% or less (almost no effect))
2 | CCCC(=O)Oc1c(C)nn(C)c(=O)c1-c1c(-c2ccc(OC)cc2)sc2cc(F)c(F)cc12 [5-015] | 3 (Herbicidal rate of 40% or more and less than 70%) | 0 (Herbicidal rate of 5% or less (almost no effect)) | 5 (Herbicidal rate of 90% or more (almost completely withered)) | 2 (Herbicidal rate of 20% or more and less than 40%) | 0 (Herbicidal rate of 5% or less (almost no effect)) | 0 (Herbicidal rate of 5% or less (almost no effect)) | 3 (Herbicidal rate of 40% or more and less than 70%) | 0 (Herbicidal rate of 5% or less (almost no effect)) | 5 (Herbicidal rate of 90% or more (almost completely withered)) | 0 (Herbicidal rate of 5% or less (almost no effect)) | 0 (Herbicidal rate of 5% or less (almost no effect)) | 4 (Herbicidal rate of 70% or more and less than 90%) | 5 (Herbicidal rate of 90% or more (almost completely withered)) | 0 (Herbicidal rate of 5% or less (almost no effect)) | 2 (Herbicidal rate of 20% or more and less than 40%) | 0 (Herbicidal rate of 5% or less (almost no effect)) | 5 (Herbicidal rate of 90% or more (almost completely withered)) | 0 (Herbicidal rate of 5% or less (almost no effect)) | J: blackgrass, herbicidal effect grade (blackgrass [1]): 0 (Herbicidal rate of 5% or less (almost no effect)); F: southern crabgrass, herbicidal effect grade (southern crabgrass [3]): 0 (Herbicidal rate of 5% or less (almost no effect)); O: lambsquarters, herbicidal effect grade (lambsquarters [4]): 4 (Herbicidal rate of 70% or more and less than 90%); H: barnyard grass, herbicidal effect grade (barnyard grass [5]): 0 (Herbicidal rate of 5% or less (almost no effect)); L: windgrass, herbicidal effect grade (windgrass [7]): 0 (Herbicidal rate of 5% or less (almost no effect)); R: persian speedwell, herbicidal effect grade (persian speedwell [8]): 5 (Herbicidal rate of 90% or more (almost completely withered)); K: Italian ryegrass, herbicidal effect grade (Italian ryegrass [11]): 0 (Herbicidal rate of 5% or less (almost no effect)); I: wild oat, herbicidal effect grade (wild oat [12]): 0 (Herbicidal rate of 5% or less (almost no effect)); P: chickweed, herbicidal effect grade (chickweed [14]): 3 (Herbicidal rate of 40% or more and less than 70%); M: velvetleaf, herbicidal effect grade (velvetleaf [15]): 0 (Herbicidal rate of 5% or less (almost no effect)); N: redroot pigweed, herbicidal effect grade (redroot pigweed [21]): 4 (Herbicidal rate of 70% or more and less than 90%); G: green foxtail, herbicidal effect grade (green foxtail [22]): 0 (Herbicidal rate of 5% or less (almost no effect))
